Data: patent publication US20150183737A1, “COMPOSITIONS AND METHODS FOR SUBSTRATE-SELECTIVE INHIBITION OF ENDOCANNABINOID OXYGENATION” (Vanderbilt University, priority 2012, published 2015)
Entries after “also recorded” stand apart in the source; their conditions may differ.

Legend:
human MGL-His (MAGL) = target: T1, human MGL-His (MAGL) (Homo sapiens, UniProt Q99685); assay: MAGL activity (Compound A); assay type: biochemical; conditions: in vitro
T1 construct: His; made in house; host or cells: E. coli BL21(DE3) pLysS
T1 sequence (Q99685 1-303): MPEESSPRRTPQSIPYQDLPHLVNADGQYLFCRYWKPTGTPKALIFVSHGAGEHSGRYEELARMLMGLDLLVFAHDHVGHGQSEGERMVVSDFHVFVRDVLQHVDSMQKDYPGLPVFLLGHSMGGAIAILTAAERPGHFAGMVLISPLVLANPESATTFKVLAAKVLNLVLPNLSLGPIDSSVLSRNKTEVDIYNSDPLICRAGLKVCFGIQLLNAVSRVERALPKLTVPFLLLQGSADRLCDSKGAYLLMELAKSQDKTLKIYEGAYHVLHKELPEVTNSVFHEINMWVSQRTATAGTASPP

[1] = test system: brain eCB, AA and PG levels; assay: Brain eCB, NAE, MAG, AA and PG levels after i.p. injection; assay type: in vivo, mice
[2] = test system: peripheral tissue eCB, NAE, MAG and PG levels; assay: Peripheral tissue NAE, MAG and PG levels after i.p. injection; assay type: in vivo, mice
Experimental: Mice were sacrificed by cervical dislocation and decapitation. The brain, lungs, liver, stomach, small intestines, and kidneys were then rapidly removed and frozen on a metal block in dry ice. The tissue was then placed in a tube and stored at −80° C. until extraction, usually one day after harvesting. For PG and eCB analysis, lipid extraction from tissue was carried out as described in Patel et al., 2009.
Analytes were quantified using LC-MS/MS on a Quantum triple-quadrupole mass spectrometer in positive-ion mode using selected reaction monitoring. Detection of eicosanoids was performed as described in Kingsley & Marnett, 2007. For fatty acid analysis the mobile phases used were 80 μM AgOAc with 0.1% (v/v) acetic acid in H2O (solvent A) and 120 μM AgOAc with 0.1% (v/v) acetic acid in MeOH (solvent B). The analytes were eluted using a gradient from 20% A to 99% B over 5 minutes. The transitions used were m/z 300→282 for PEA, m/z 328→310 for SEA, m/z 434→416 for OEA, m/z 456→438 for AEA, m/z 464→446 for AEA-d8, m/z 331→257 for 2-PG, m/z 359→285 for 2-SG, m/z 463→389 for 2-OG, m/z 485→411 for 2-AG, m/z 493→419 for 2-AG-d8, m/z 519→409 for AA, and m/z 527→417 for AA-d8. Peak areas for the analytes were normalized to the appropriate internal standard and then normalized to tissue mass for in vivo samples. […]

ICR mice [3] = assay: Novel open field test; assay type: in vivo
Experimental: Animals were tested for open-field activity in a novel environment one hour after i.p. injection of compound as described in Sumislawski et al., 2011. Briefly, one-hour sessions were performed using automated experimental chambers (27.9 27.9 cm; MEDOFA-510; MED Associates, Ga., Vermont, United States of America) under constant illumination within a sound-attenuated room. Analysis of open field activity was performed using Activity Monitor v5.10 (MED Associates).

ICR mice [4] = assay: Light-dark box; assay type: in vivo
[5] = Gastrointestinal hemorrhage; conditions: in vivo
[6] = Detection of Compound A in brain extract; conditions: 2 hours after i.p. injection, LC-MS/MS
[7] = 10 mg/kg i.p. (Compound A: any dose tested), 2 hours
[8] = 2 hours after i.p administration, dose not stated
[9] = 10 mg/kg, two hours after injection

COc1ccc2c(c1)c(CC(=O)N1CCOCC1)c(C)n2C(=O)c1ccc(Cl)cc1 [Compound A, 2-[1-(4-Chloro-benzoyl)-5-methoxy-2-methyl-1H-indol-3-yl]-1-morpholin-4-yl-ethanone]
Inhibition of MAGL (human MGL-His (MAGL)): did not inhibit
Whole brain AEA levels ([1]; 3 mg/kg i.p., 2 hours, male ICR mice): significantly increased
Brain 2-AG levels in wild type littermates of COX-2 knockout mice ([1]; 10 mg/kg): significantly increased
Brain 2-AG levels, meta-analysis of 12 cohorts ([1]; 10 mg/kg): 109 % of vehicle
Brain AA or PG levels in WT or COX-2^(−/−) mice ([1]; 10 mg/kg): did not affect
Brain AEA levels in wild type littermates of COX-2 knockout mice ([1]; 10 mg/kg): significantly increased
Brain AEA, meta-analysis of 12 cohorts ([1]; 10 mg/kg): 139 % of vehicle
Brain levels of MAGs other than 2-AG ([1]; 10 mg/kg): did not affect
Brain AA levels [1, 7]: did not significantly affect
Brain PG levels [1, 7]: did not affect
Brain 2-AG levels ([1]; 10 mg/kg i.p. (highest dose), 2 hours, vs vehicle): non-significant trend to increase; also recorded: significantly increased
Brain levels of NAEs other than AEA ([1]; 10 mg/kg i.p., 2 hours): not any other NAE; also recorded: no other NAE
Brain AEA levels ([1]; 10 mg/kg i.p., 2 hours, vs vehicle): significantly increased
Brain 2-AG levels (Example 8) [1, 8]: without affecting
Brain AEA levels (Example 8) [1, 8]: increased
Brain 2-AG levels after JZL-184 treatment, compared to JZL-184 alone ([1]; combination treatment): additional significant increase
Brain AEA levels when combined with PF-3845, compared to PF-3845 alone ([1]; combination treatment): significant additional increase
Brain or lung PG levels (Example 8) ([1]; dose not stated): did not affect
Brain AEA and 2-AG levels in CB1^(−/−) mice ([1]; mouse, in vivo): significantly increased
Brain PG levels in CB1^(−/−) mice ([1]; mouse, in vivo): no effect; also recorded: without affecting
Ability to increase brain AEA levels in COX-2 knockout (KO) mice ([1]; present in wild type littermates): absent
Brain AEA levels in WT and FAAH KO mice ([1]; similar extent in both genotypes): increased
AEA levels in the kidney [2, 9]: significantly increased
AEA levels in the lung [2, 9]: significantly increased
AEA levels in the small intestine [2, 9]: significantly increased
AEA levels in the stomach [2, 9]: significantly increased
Liver NAE levels ([2]; liver): did not affect
2-AG or any other MAG in any tissue ([2]; peripheral tissues, 10 mg/kg): no effect
Levels of any other NAE in any tissue ([2]; peripheral tissues, 10 mg/kg): did not affect
PG levels in peripheral tissues ([2]; stomach, heart, kidney, lung, intestine): no effect
Center distance travelled and center time in the open-field arena (ICR mice [3]; 10 mg/kg): increased
Open field behavior in mice treated with Rimonabant (ICR mice [3]; Rimonabant 3 mg/kg): no significant behavioral effect
Exploratory behavior and center time exploration in the open field (Example 8) (ICR mice [3]; most pronounced during minutes 40-60): dose-dependently increased
Open field behavior (center distance or time) in CB1^(−/−) mice (ICR mice [3]; mouse, in vivo): did not produce any behavioral effect; also recorded: did not increase
Open field behavior in COX-2^(−/−) mice (ICR mice [3]; mouse, in vivo): did not produce any significant behavioral effects
Open field behavior in vehicle-pretreated mice (ICR mice [3]; mouse, in vivo): exerting anxiolytic actions
Open field behavior in wild type littermates of COX-2^(−/−) mice (ICR mice [3]; mouse, in vivo): normal anxiolytic-like response
Hypolocomotion (ICR mice [3]; open field data): did not cause hypolocomotion
Light-zone time (ICR mice [4]; 10 mg/kg): significantly increased
Number of light-zone entries (ICR mice [4]; 10 mg/kg): significantly increased
Overall locomotor activity in the light-dark box (ICR mice [4]; 10 mg/kg): without significantly affecting
Anxiolytic effects in the light-dark box with Rimonabant (ICR mice [4]; Rimonabant 3 mg/kg): blocked
Gastrointestinal hemorrhage [5]: not to cause gastrointestinal hemorrhage
Indomethacin in brain extract after Compound A treatment [6]: not detected
Presence of compound in brain [6]: present in the brain
